5 compounds from patent publication US20090264452A1 (priority 2004, published 2009) can be followed below.

This assay has as its target T1, human cannabinoid CB2 receptor (Homo sapiens, UniProt P34972).
T1 construct: expressed in transfected cells; host or cells: Saccharomyces cerevisiae strain MMY23 (integration at the ura3 locus, GPD promoter)
As to the kind of experiment: Cannabinoid CB2 receptor agonist activity, yeast reporter assay. Format: cell-based. Conditions: for Emax: relative to HU210, yeast cells expressing human CB2, read-out: efficacy value (Emax) at the cloned human cannabinoid CB2 receptor; for pEC50: yeast (Saccharomyces cerevisiae) cells expressing human CB2, agonist, read-out: EC50 at the cloned human cannabinoid CB2 receptor. On the procedure:
The cannabinoid CB2 receptor agonist activity of the compounds of formula (I) was determined in accordance with the following experimental method.
Yeast (Saccharomyces cerevisiae) cells expressing the human cannabinoid CB2 receptor were generated by integration of an expression cassette into the ura3 chromosomal locus of yeast strain MMY23. This cassette consisted of DNA sequence encoding the human CB2 receptor flanked by the yeast GPD promoter to the 5′ end of CB2 and a yeast transcriptional terminator sequence to the 3′ end of CB2. MMY23 expresses a yeast/mammalian chimeric G-protein alpha subunit in which the C-terminal 5 amino acids of Gpa1 are replaced with the C-terminal 5 amino acids of human Gαi3 (as described in Brown et al. (2000), Yeast 16:11-22). Cells were grown at 30° C. in liquid Synthetic Complete (SC) yeast media (Guthrie and Fink (1991), Methods in Enzymology, Vol. 194) lacking uracil, tryptophan, adenine and leucine to late logarithmic phase (approximately 6 OD600/ml).
Agonists were prepared as 10 mM stocks in DMSO. EC50 values (the concentration required to produce 50% maximal response) were estimated using dilutions of between 3- and 5-fold (BiomekFX, Beckman) into DMSO. Agonist solutions in DMSO (1% final assay volume) were transferred into black, clear bottom, microtitre plates from NUNC (96- or 384-well). Cells were suspended at a density of 0.2 OD600/ml in SC media lacking histidine, uracil, tryptophan, adenine and leucine and supplemented with 10 mM 3-aminotriazole, 0.1M sodium phosphate pH 7.0, and […] fluorescein di-β-D-glucopyranoside (FDGlu). This mixture (50 ul per well for 384-well plates, 200 ul per well for 96-well plates) was added to agonist in the assay plates (Multidrop 384, Labsystems). After incubation at 30° C. for 24 hours, fluorescence resulting from degradation of FDGlu to fluorescein due to exoglucanase, an endogenous yeast enzyme produced during agonist-stimulated cell growth, was determined using a Spectrofluor microtitre plate reader (Tecan; excitation wavelength: 485 nm; emission wavelength: 535 nm). Fluorescence was plotted against compound concentration an iteratively curve fitted using a four parameter fit to generate a concentration effect value. Efficacy (Emax) was calculated from the equation
Emax=Max[compound X]−Min[compound X]/Max[HU210]−Min[HU210]×100%
where Max[compound X] and Min[compound X] are the fitted maximum and minimum respectively from the concentration effect curve for compound X, and Max[HU210] and Min[HU210] are the fitted maximum and minimum respectively from the concentration effect curve for (6aR,10aR)-3-(1,1′-Dimethylheptyl)-6a,7,10,10a-tetrahydro-1-hydroxy-6,6-dimethyl-6H-dibenzo[b,d]pyran-9-methanol (HU210; available from Tocris). Equieffective molar ratio (EMR) values were calculated from the equation
Where EC50 [compound X] is the EC50 of compound X and EC50 [HU210] is the EC50 of HU210.
For orientation: A reporter such as luciferase makes a cellular process visible.

The structures appear in SMILES notation. pEC50: −log10 of the molar value. Counter-ions that a name gives are not always drawn. Bounds are passed on as bounds.

T1 sequence (P34972 whole entry): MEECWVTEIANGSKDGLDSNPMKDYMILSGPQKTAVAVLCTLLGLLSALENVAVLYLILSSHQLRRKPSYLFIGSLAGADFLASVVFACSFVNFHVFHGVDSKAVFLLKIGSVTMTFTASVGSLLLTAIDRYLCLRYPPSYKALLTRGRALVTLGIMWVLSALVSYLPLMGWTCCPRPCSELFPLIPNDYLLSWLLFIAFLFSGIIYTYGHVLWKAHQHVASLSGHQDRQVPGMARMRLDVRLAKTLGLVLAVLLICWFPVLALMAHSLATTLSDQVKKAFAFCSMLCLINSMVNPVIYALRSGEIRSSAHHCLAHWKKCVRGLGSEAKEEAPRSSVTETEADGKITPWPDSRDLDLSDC

On to `CC(C)c1nc(Nc2cccc(Cl)c2)ncc1C(=O)NCC1CCCCC1` [Example 1], for which the Emax (usually the size of the effect at its maximum, as opposed to the concentration needed) is above 50% and the pEC50 (as a rule, the negative decadic logarithm of the EC50, by convention in mol/L) was above 6.52.
Regarding `CC(C)c1nc(Nc2cccc(Cl)c2)ncc1C(=O)NCC1CCOCC1` [Example 2, 2-(3-Chlorophenylamino)-4-isopropylpyrimidin-5-carboxylic acid (tetrahydro-pyran-4-ylmethyl)-amide], the Emax was above 50% and the pEC50 was above 6.52.
For the compound `CCc1nc(Nc2cccc(Cl)c2)ncc1C(=O)NCC1CCCCC1` [Example 3], the Emax was above 50% and the pEC50 was above 6.52.
Consider `CCc1nc(Nc2cccc(Cl)c2)ncc1C(=O)NCC1CCOCC1` [Example 4, 2-(3-Chlorophenylamino)-4-ethylpyrimidin-5-carboxylic acid (tetrahydro-pyran-4-ylmethyl)-amide], for which the Emax is above 50% and the pEC50 is 6.00 to 6.52.
As to `CC(c1nc(Nc2cccc(Cl)c2)ncc1C(=O)NCC1CCOCC1)N(C)C` (stereo not shown) [Example 5, 2-[(3-chlorophenyl)amino]-4-[1-(dimethylamino)ethyl]-N-(tetrahydro-2H-pyran-4-ylmethyl)-5-pyrimidinecarboxamide hydrochloride], the Emax is below 50% and the pEC50 is below 6.00.
